Measured values as given in the supplement of paper PMC10307832.

Assays:
Experiment in all cases: relative viability (nuclei count vs DMSO), 5 days (fraction); higher = more cells survive
EBC-1 = tested on: EBC-1
Method in brief: (§1)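 Medians of duplicate plates are given as relative viability. That measure is the nuclei count in treated wells divided by the count in vehicle wells. Counts were taken on 4× images of lung cancer cell lines in 1536-well plates, 5 days after pin-tool dosing the day after seeding with one drug alone or a fixed anchor-drug dose plus five library-drug doses (not always all listed) in √10 steps.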

NCI-H1623 = tested on: NCI-H1623
Method in brief: as §1

A-427 = tested on: A-427
Method in brief: as §1

NCI-H2009 = tested on: NCI-H2009
Method in brief: as §1

NCI-H1703 = tested on: NCI-H1703
Method in brief: as §1

NCI-H1299 = tested on: NCI-H1299
Method in brief: as §1

NCI-H1650 = tested on: NCI-H1650
Method in brief: as §1

UMC-11 = tested on: UMC-11
Method in brief: as §1

Calu-6 = tested on: Calu-6
Method in brief: as §1

NCI-H1734 = tested on: NCI-H1734
Method in brief: as §1

A549 = tested on: A549
Method in brief: as §1

CAL-12T = tested on: CAL-12T
Method in brief: as §1

LK-2 = tested on: LK-2
Method in brief: as §1

IA-LM = tested on: IA-LM
Method in brief: as §1

Compound: Cc1sc2c(c1C)C(c1ccc(Cl)cc1)=N[C@@H](CC(=O)OC(C)(C)C)c1nnc(C)n1-2 [JQ1] + COc1cc2c(Oc3ccc(NC(=O)C4(C(=O)Nc5ccc(F)cc5)CC4)cc3F)ccnc2cc1OCCCN1CCOCC1 [Foretinib] (partner 0.25 µM)
- relative viability (EBC-1; first compound 0.04 µM): 0.098
- relative viability (EBC-1; first compound 0.1265 µM): 0.0891
- relative viability (EBC-1; first compound 0.4 µM): 0.0572
- relative viability (EBC-1; first compound 1.265 µM): 0.0617
- relative viability (EBC-1; first compound 4 µM): 0.0624
- relative viability (NCI-H1623; first compound 0.04 µM): 0.878
- relative viability (NCI-H1623; first compound 0.1265 µM): 0.809
- relative viability (NCI-H1623; first compound 0.4 µM): 0.716
- relative viability (NCI-H1623; first compound 1.265 µM): 0.496
- relative viability (NCI-H1623; first compound 4 µM): 0.441
- relative viability (A-427; first compound 0.04 µM): 1.01
- relative viability (A-427; first compound 0.1265 µM): 0.988
- relative viability (A-427; first compound 0.4 µM): 0.913
- relative viability (A-427; first compound 1.265 µM): 0.908
- relative viability (A-427; first compound 4 µM): 0.636
- relative viability (NCI-H2009; first compound 0.04 µM): 1.06
- relative viability (NCI-H2009; first compound 0.1265 µM): 0.801
- relative viability (NCI-H2009; first compound 0.4 µM): 0.786
- relative viability (NCI-H2009; first compound 1.265 µM): 0.413
- relative viability (NCI-H2009; first compound 4 µM): 0.352
- relative viability (NCI-H1703; first compound 0.04 µM): 0.298
- relative viability (NCI-H1703; first compound 0.1265 µM): 0.284
- relative viability (NCI-H1703; first compound 0.4 µM): 0.313
- relative viability (NCI-H1703; first compound 1.265 µM): 0.318
- relative viability (NCI-H1703; first compound 4 µM): 0.332
- relative viability (NCI-H1299; first compound 0.04 µM): 1.03
- relative viability (NCI-H1299; first compound 0.1265 µM): 0.947
- relative viability (NCI-H1299; first compound 0.4 µM): 0.819
- relative viability (NCI-H1299; first compound 1.265 µM): 0.558
- relative viability (NCI-H1299; first compound 4 µM): 0.34
- relative viability (NCI-H1650; first compound 0.04 µM): 0.894
- relative viability (NCI-H1650; first compound 0.1265 µM): 0.656
- relative viability (NCI-H1650; first compound 0.4 µM): 0.568
- relative viability (NCI-H1650; first compound 1.265 µM): 0.26
- relative viability (NCI-H1650; first compound 4 µM): 0.161
- relative viability (UMC-11; first compound 0.04 µM): 0.954
- relative viability (UMC-11; first compound 0.1265 µM): 0.663
- relative viability (UMC-11; first compound 0.4 µM): 0.372
- relative viability (UMC-11; first compound 1.265 µM): 0.286
- relative viability (UMC-11; first compound 4 µM): 0.238
- relative viability (Calu-6; first compound 0.04 µM): 0.848
- relative viability (Calu-6; first compound 0.1265 µM): 0.79
- relative viability (Calu-6; first compound 0.4 µM): 0.756
- relative viability (Calu-6; first compound 1.265 µM): 0.478
- relative viability (Calu-6; first compound 4 µM): 0.406
- relative viability (NCI-H1734; first compound 0.04 µM): 0.963
- relative viability (NCI-H1734; first compound 0.1265 µM): 0.834
- relative viability (NCI-H1734; first compound 0.4 µM): 0.872
- relative viability (NCI-H1734; first compound 1.265 µM): 0.499
- relative viability (NCI-H1734; first compound 4 µM): 0.531
- relative viability (A549; first compound 0.04 µM): 0.881
- relative viability (A549; first compound 0.1265 µM): 0.76
- relative viability (A549; first compound 0.4 µM): 0.878
- relative viability (A549; first compound 1.265 µM): 0.32
- relative viability (A549; first compound 4 µM): 0.194
- relative viability (CAL-12T; first compound 0.04 µM): 1.16
- relative viability (CAL-12T; first compound 0.1265 µM): 0.747
- relative viability (CAL-12T; first compound 0.4 µM): 0.858
- relative viability (CAL-12T; first compound 1.265 µM): 0.351
- relative viability (CAL-12T; first compound 4 µM): 0.307
- relative viability (LK-2; first compound 0.04 µM): 1.21
- relative viability (LK-2; first compound 0.1265 µM): 1.04
- relative viability (LK-2; first compound 0.4 µM): 0.325
- relative viability (LK-2; first compound 1.265 µM): 0.226
- relative viability (LK-2; first compound 4 µM): 0.221
- relative viability (IA-LM; first compound 0.04 µM): 0.943
- relative viability (IA-LM; first compound 0.1265 µM): 0.645
- relative viability (IA-LM; first compound 0.4 µM): 0.224
- relative viability (IA-LM; first compound 1.265 µM): 0.0743
- relative viability (IA-LM; first compound 4 µM): 0.0831
